In brackets after ≈: the same amount, converted by molar mass. Where two headings read alike, the source gives them in different places.
Columns and labels:
M. avium ATCC 1723 = assay: MIC against MAC strains, agar dilution; format: cell-based, Mycobacterium avium; conditions: S. No. 03 Ma-3, M. avium ATCC 1723, Middle Brook 7H10 + OADC, 37° C., 14-21 days
M. tuberculosis PC [1] = assay: MIC against M. tuberculosis strains, agar dilution; format: cell-based, Mycobacterium tuberculosis; conditions: S. No. 16 Mt-, Middle Brook 7H10 + OADC, 37° C., 14-21 days
M. tuberculosis PC [2] = assay: MIC against M. tuberculosis strains, agar dilution; format: cell-based, Mycobacterium tuberculosis; conditions: S. No. 20 Mt-, Middle Brook 7H10 + OADC, 37° C., 14-21 days
[3] = tested on: M. avium intracellulare 1211/96; assay: MIC against MAC strains, agar dilution; format: cell-based; conditions: S. No. 13 Mai-5, M. avium intracellulare 1211/96, Middle Brook 7H10 + OADC, 37° C., 14-21 days
M. tuberculosis PC [4] = assay: MIC against M. tuberculosis strains, agar dilution; format: cell-based, Mycobacterium tuberculosis; conditions: S. No. 19 Mt-, Middle Brook 7H10 + OADC, 37° C., 14-21 days
M. intracellulare B-78/3 = assay: MIC against MAC strains, agar dilution; format: cell-based; conditions: S. No. 09 Mi-4, M. intracellulare B-78/3, Middle Brook 7H10 + OADC, 37° C., 14-21 days
M. tuberculosis H37Ra = assay: MIC against M. tuberculosis strains, agar dilution; format: cell-based, Mycobacterium tuberculosis; conditions: S. No. 24 Mt-, Middle Brook 7H10 + OADC, 37° C., 14-21 days
M. bovis ATCC 19210 = format: cell-based; conditions: S. No. 18 NTM, Middle Brook 7H10 + OADC, 37° C., 14-21 days
[5] = tested on: M. avium intracellulare 356/97; assay: MIC against MAC strains, agar dilution; format: cell-based; conditions: S. No. 10 Mai-1, M. avium intracellulare 356/97, Middle Brook 7H10 + OADC, 37° C., 14-21 days
M. tuberculosis B-125 = assay: MIC against M. tuberculosis strains, agar dilution; format: cell-based, Mycobacterium tuberculosis; conditions: S. No. 11 Mt-, Middle Brook 7H10 + OADC, 37° C., 14-21 days
M. avium AIIMS = assay: MIC against MAC strains, agar dilution; format: cell-based, Mycobacterium avium; conditions: S. No. 04 Ma-4, M. avium AIIMS, Middle Brook 7H10 + OADC, 37° C., 14-21 days
[6] = tested on: M. avium intracellulare 926/98; assay: MIC against MAC strains, agar dilution; format: cell-based; conditions: S. No. 14 Mai-6, M. avium intracellulare 926/98, Middle Brook 7H10 + OADC, 37° C., 14-21 days
M. tuberculosis PC 4793 = assay: MIC against M. tuberculosis strains, agar dilution; format: cell-based, Mycobacterium tuberculosis; conditions: Middle Brook 7H10 + OADC, 37° C., 14-21 days
M. tuberculosis ATCC = assay: MIC against M. tuberculosis strains, agar dilution; format: cell-based, Mycobacterium tuberculosis; conditions: S. No. 03 Mt-, Middle Brook 7H10 + OADC, 37° C., 14-21 days
M. tuberculosis PC [7] = assay: MIC against M. tuberculosis strains, agar dilution; format: cell-based, Mycobacterium tuberculosis; conditions: S. No. 22 Mt-, Middle Brook 7H10 + OADC, 37° C., 14-21 days
M. tuberculosis SGPGI = assay: MIC against M. tuberculosis strains, agar dilution; format: cell-based, Mycobacterium tuberculosis; conditions: S. No. 07 Mt-, Middle Brook 7H10 + OADC, 37° C., 14-21 days
M. tuberculosis H37Rv = assay: MIC against M. tuberculosis strains, agar dilution; format: cell-based, Mycobacterium tuberculosis; conditions: S. No. 04 Mt-, Middle Brook 7H10 + OADC, 37° C., 14-21 days
H. influenzae P318 = assay: MIC against Haemophilus strains; format: cell-based; conditions: Haemophilus influenzae; s. No. 10, H. influenzae P318; read-out: MIC
H. influenzae 474 = assay: MIC against Haemophilus strains; format: cell-based; conditions: Haemophilus influenzae; s. No. 11, H. influenzae 474; read-out: MIC
H. influenzae R = assay: MIC against Haemophilus strains; format: cell-based; conditions: Haemophilus influenzae; s. No. 4, H. influenzae R; read-out: MIC
H. influenzae βIac = assay: MIC against Haemophilus strains; format: cell-based; conditions: Haemophilus influenzae; s. No. 3, H. influenzae βIac; read-out: MIC
S. warnerii ST360 = assay: MIC, agar incorporation method; format: cell-based
H. influenzae ATCC 49247 = assay: MIC against Haemophilus strains; format: cell-based; conditions: Haemophilus influenzae, ATCC49247; s. No. 2, H. influenzae ATCC 49247; read-out: MIC
[8] = Mycobacterium tuberculosis, read-out: MIC
[9] = Mycobacterium tuberculosis, PC4793, S. No. 23 Mt-, read-out: MIC
[10] = Mycobacterium avium, read-out: MIC

Structure (SMILES)	MIC (M. avium ATCC 1723)	MIC (M. tuberculosis PC [1])	MIC (M. tuberculosis PC [2])	MIC [3]	MIC (M. tuberculosis PC [4])	MIC (M. intracellulare B-78/3)	MIC (M. tuberculosis H37Ra)	MIC (M. bovis ATCC 19210)	MIC [5]	MIC (M. tuberculosis B-125)	MIC (M. avium AIIMS)	MIC [6]	MIC (M. tuberculosis PC 4793; S. No. 23 Mt-)	MIC (M. tuberculosis ATCC)	MIC (M. tuberculosis PC [7])	MIC (M. tuberculosis SGPGI)	MIC (M. tuberculosis H37Rv)	MIC (M. tuberculosis PC [1]; [8])	MIC (M. tuberculosis PC [2]; [8])	MIC (H. influenzae P318)	further results
C[C@@H]1CN(c2c(F)c(N)c3c(=O)c(C(=O)O)cn(C4CC4)c3c2F)C[C@H](C)N1 [SPAR]	4.0 µg/mL	2.0 µg/mL	8.0 µg/mL	4.0 µg/mL	≦0.125 μg/ml	2.0 µg/mL	≦0.12 μg/ml	<0.12 µg/mL	2.0 µg/mL	≦0.125 μg/ml	8.0 µg/mL	2.0 µg/mL	4.0 µg/mL	≦0.125 μg/ml	4.0 µg/mL	4.0 µg/mL	≦0.125 μg/ml				
CCc1cc(C(N)=S)ccn1 [ETH]	16 µg/mL	32 µg/mL	16 µg/mL	1.0 µg/mL	1.0 µg/mL	4.0 µg/mL	2.0 µg/mL	2.0 µg/mL	8.0 µg/mL	2.0 µg/mL	16 µg/mL	16 µg/mL	>32 µg/mL	2.0 µg/mL	>32 µg/mL	>32 µg/mL	≦0.125 μg/ml				
CC[C@H]1OC(=O)[C@H](C)[C@@H](O[C@H]2C[C@@](C)(OC)[C@@H](O)[C@H](C)O2)[C@H](C)[C@@H](O[C@@H]2O[C@H](C)C[C@H](N(C)C)[C@H]2O)[C@](C)(OC)C[C@@H](C)C(=O)[C@H](C)[C@@H](O)[C@]1(C)O [CLA]	1.0 µg/mL	8.0 µg/mL	4.0 µg/mL	0.25 µg/mL	8.0 µg/mL	1.0 µg/mL	<0.25 µg/mL	32 µg/mL	2.0 µg/mL	16 µg/mL	1.0 µg/mL	1.0 µg/mL	8.0 µg/mL	32 µg/mL	8.0 µg/mL	16 µg/mL	32 µg/mL				
NNC(=O)c1ccncc1 [INH]	32 µg/mL	8.0 µg/mL	16 µg/mL	32 µg/mL	0.25 µg/mL	16 µg/mL	0.25 µg/mL	0.25 µg/mL	4.0 µg/mL	0.06 µg/mL	>32 µg/mL	4.0 µg/mL	>32 µg/mL	>32 µg/mL	>32 µg/mL	>32 µg/mL	0.125 µg/mL				
CC(=O)NC[C@H]1CN(c2ccc(N3CCOCC3)c(F)c2)C(=O)O1 [Linezolid, reference compound]																		32 µg/mL	32 µg/mL	16 µg/mL (≈ 47.4 µM)	MIC (H. influenzae 474): 16 µg/mL (≈ 47.4 µM); MIC (M. tuberculosis PC [4]; [8]): 0.5 µg/mL; MIC (H. influenzae R): 16 µg/mL (≈ 47.4 µM); MIC (M. tuberculosis H37Ra; [8]): 0.5 µg/mL; MIC (H. influenzae βIac): 8 µg/mL (≈ 23.7 µM); MIC (M. tuberculosis PC 4793; [9]): 8 µg/mL; MIC (M. tuberculosis ATCC; [8]): 1 µg/mL; MIC (M. tuberculosis PC [7]; [8]): 32 µg/mL; MIC (M. tuberculosis SGPGI; [8]): > 32 µg/mL; MIC (S. warnerii ST360): < 0.5 µg/mL; MIC (M. tuberculosis H37Rv; [8]): 1 µg/mL; MIC (H. influenzae ATCC 49247): 8 µg/mL (≈ 23.7 µM)
CC(=O)NC[C@H]1CN(c2ccc(N3CCN(c4ccc([N+](=O)[O-])s4)CC3)c(F)c2)C(=O)O1 [Compound No. 1, (S)—N-[[3-[3-Fluoro-4-[4-(5-nitro-2-thienyl)-1-piperazinyl]phenyl]-2-oxo-5-oxazolidinyl]methyl]acetamide]																		0.25 µg/mL	0.25 µg/mL	16 µg/mL (≈ 34.5 µM)	MIC (M. avium ATCC 1723; Mycobacterium avium, ATCC1723, read-out: MIC): 0.25 µg/mL; MIC (H. influenzae 474): 16 µg/mL (≈ 34.5 µM); melting point: 171 to 174 °C; MIC [3, 10]: 8 µg/mL; MIC (M. tuberculosis PC [4]; [8]): ≤ 0.125 µg/mL; MIC (M. intracellulare B-78/3; Mycobacterium intracellulare, B78/3, read-out: MIC): 0.25 µg/mL; MIC (H. influenzae R): 8 µg/mL (≈ 17.3 µM); MIC (M. tuberculosis H37Ra; [8]): ≤ 0.125 µg/mL; MIC [5, 10]: 0.25 µg/mL; MIC (M. avium AIIMS; [10]): 0.25 µg/mL; MIC [6, 10]: < 0.12 µg/mL; MIC (H. influenzae βIac): 8 µg/mL (≈ 17.3 µM); MIC (M. tuberculosis PC 4793; [9]): > 32 µg/mL; MIC (M. tuberculosis PC [7]; [8]): 0.5 µg/mL; MIC (M. tuberculosis SGPGI; [8]): 0.5 µg/mL; MIC (S. warnerii ST360): 0.125 µg/mL (≈ 0.27 µM); MIC (H. influenzae ATCC 49247): 8 µg/mL (≈ 17.3 µM)

From patent publication US20060293307A1, “Oxazolidinone derivatives as antimicrobials” (priority 2002, published 2006)
